Legend:
in vitro = conditions: human, uninfected MT-4 cells, CC50 (nM), same protocol as Test A, CellTiter-Glo
Outline: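 Cytoprotection read-out: CellTiter-Glo chemiluminescence after 5 days at 37 °C of HIV-IIIb-infected MT-4 cells (m.o.i. 0.003) with compound in 10-point 3-fold dilutions, quadruplicate, 10% FBS. Cytotoxicity (CC50) measured identically without virus.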

HIV-IIIb = assay: Test A: Antiviral assay in MT4 cells; format: cell-based, HIV-1; conditions: Human immunodeficiency virus 1, IIIB, MT4, 120 h, read-out: % inhibition at 2 μM, percent inhibition of virus-induced cell killing, from dose response curve at 2 uM drug; MT-4 cells infected with HIV-IIIb, 5 days, CellTiter-Glo

In the case of `O=C(Cn1nc(C(F)(F)F)c2c1CCCC2)N[C@@H](Cc1cc(F)cc(F)c1)c1nc[nH]c(=O)c1-c1ccc(Cl)cc1` [Example 301B, (S)—N-(1-(5-(4-chlorophenyl)-6-oxo-1,6-dihydropyrimidin-4-yl)-2-(3,5-difluorophenyl)ethyl)-2-(3-(trifluoromethyl)-4,5,6,7-tetrahydro-1H-indazol-1-yl)acetamide], the CC50 at 5 days (in vitro) is reported as 5650 nM and the inhibition at 2 µM (HIV-IIIb) is reported as 0%.
For `O=C(Cc1c[nH]c2ccc(F)cc12)N[C@@H](Cc1cc(F)cc(F)c1)c1ncccc1-c1ccnc(-c2nn[nH]n2)c1` [Example 302, (S)—N-(1-(2′-(2H-tetrazol-5-yl)-3,4′-bipyridin-2-yl)-2-(3,5-difluorophenyl)ethyl)-2-(5-fluoro-1H-indol-3-yl)acetamide], the CC50 at 5 days (in vitro) was 16800 nM and the inhibition at 2 µM (HIV-IIIb) was 0%.
With `NC(=O)c1cc(-c2cccnc2[C@H](Cc2cc(F)cc(F)c2)NC(=O)Cn2nc(C(F)(F)F)c3c2CCNC3)ccc1F` [Example 303, (S)-5-(2-(2-(3,5-difluorophenyl)-1-(2-(3-(trifluoromethyl)-4,5,6,7-tetrahydro-1H-pyrazolo[4,3-c]pyridin-1-yl)acetamido)ethyl)pyridin-3-yl)-2-fluorobenzamide] the CC50 at 5 days (in vitro) was 35500 nM and the inhibition at 2 µM (HIV-IIIb) was 14%.
Work on `NC(=O)c1cc(-c2cccnc2[C@H](Cc2cc(F)cc(F)c2)NC(=O)Cn2nc(C(F)F)c3c2C2CC2CC3(F)F)ccc1F` (stereo partly drawn) [Example 304C, 5-(2-((1S)-1-(2-(3-(difluoromethyl)-4,4-difluoro-5,5a,6,6a-tetrahydrocyclopropa[g]indazol-1(4H)-yl)acetamido)-2-(3,5-difluorophenyl)ethyl)pyridin-3-yl)-2-fluorobenzamide] yielded a CC50 at 5 days (in vitro) of 1700 nM and an inhibition at 2 µM (HIV-IIIb) of 94%.
In the case of `NC(=O)c1cc(-c2cccnc2[C@H](Cc2cc(F)cc(F)c2)NC(=O)Cn2cc(CN3CCOCC3)c(C(F)(F)F)n2)ccc1F` [Example 305, (S)-5-(2-(2-(3,5-difluorophenyl)-1-(2-(4-(morpholinomethyl)-3-(trifluoromethyl)-1H-pyrazol-1-yl)acetamido)ethyl)pyridin-3-yl)-2-fluorobenzamide], the CC50 at 5 days (in vitro) is reported as over 53200 nM and the inhibition at 2 µM (HIV-IIIb) is reported as 0%.
In the case of `Cc1nn(CC(=O)N[C@@H](Cc2cc(F)cc(F)c2)c2ncccc2-c2cccc(C(N)=O)c2)c2cc(O)ccc12` [Example 306C, (S)-3-(2-(2-(3,5-difluorophenyl)-1-(2-(6-hydroxy-3-methyl-1H-indazol-1-yl)acetamido)ethyl)pyridin-3-yl)benzamide], the CC50 at 5 days (in vitro) is reported as 41600 nM and the inhibition at 2 µM (HIV-IIIb) is reported as 10%.
In the case of `NC(=O)c1cc(-c2cccnc2[C@H](Cc2cc(F)cc(F)c2)NC(=O)Cn2nc(C(F)F)c3c2CCCC3)ccc1F` [Example 307, (S)-5-(2-(1-(2-(3-(difluoromethyl)-4,5,6,7-tetrahydro-1H-indazol-1-yl)acetamido)-2-(3,5-difluorophenyl)ethyl)pyridin-3-yl)-2-fluorobenzamide], the CC50 at 5 days (in vitro) is reported as 26700 nM and the inhibition at 2 µM (HIV-IIIb) is reported as 99%.
Work on `NC(=O)c1cc(-c2cncnc2[C@H](Cc2cc(F)cc(F)c2)NC(=O)Cn2nc(C(F)F)c3c2C(F)(F)CCC3(F)F)ccc1F` [Example 308, (S)-5-(4-(1-(2-(3-(difluoromethyl)-4,4,7,7-tetrafluoro-4,5,6,7-tetrahydro-1H-indazol-1-yl)acetamido)-2-(3,5-difluorophenyl)ethyl)pyrimidin-5-yl)-2-fluorobenzamide] yielded a CC50 at 5 days (in vitro) of 39800 nM and an inhibition at 2 µM (HIV-IIIb) of 102%.
Compound `NC(=O)c1cc(-c2cccnc2[C@H](Cc2cc(F)cc(F)c2)NC(=O)Cn2c(=O)[nH]c3cc(Cl)c(Cl)cc32)ccc1F` [Example 309, (S)-5-(2-(1-(2-(5,6-dichloro-2-oxo-2,3-dihydro-1H-benzo[d]imidazol-1-yl)acetamido)-2-(3,5-difluorophenyl)ethyl)pyridin-3-yl)-2-fluorobenzamide] has a CC50 at 5 days (in vitro) of 12000 nM and an inhibition at 2 µM (HIV-IIIb) of 9%.
Work on `NC(=O)c1cc(-c2cccnc2[C@H](Cc2cc(F)cc(F)c2)NC(=O)Cc2c[nH]c3ccc(O)cc23)ccn1` [Example 310C, (S)-2-(2-(3,5-difluorophenyl)-1-(2-(5-hydroxy-1H-indol-3-yl)acetamido)ethyl)-3,4′-bipyridine-2′-carboxamide] yielded a CC50 at 5 days (in vitro) of over 53000 nM and an inhibition at 2 µM (HIV-IIIb) of 97%.
In the case of `NC(=O)c1cc(-c2cccnc2[C@H](Cc2cc(F)cc(F)c2)NC(=O)Cn2cc(C(N)=O)c(C(F)(F)F)n2)ccc1F` [Example 312, (S)-1-(2-(1-(3-(3-carbamoyl-4-fluorophenyl)pyridin-2-yl)-2-(3,5-difluorophenyl)ethylamino)-2-oxoethyl)-3-(trifluoromethyl)-1H-pyrazole-4-carboxamide], the CC50 at 5 days (in vitro) is reported as over 53200 nM and the inhibition at 2 µM (HIV-IIIb) is reported as 2%.
Compound `NC(=O)c1cccc(-c2cncnc2[C@@H](Cc2cc(F)cc(F)c2)NC(=O)Cc2c[nH]c3ccc(O)cc23)c1` [Example 313, (R)-3-(4-(2-(3,5-difluorophenyl)-1-(2-(5-hydroxy-1H-indol-3-yl)acetamido)ethyl)pyrimidin-5-yl)benzamide] has a CC50 at 5 days (in vitro) of over 53200 nM and an inhibition at 2 µM (HIV-IIIb) of 14%.
`CCNCc1cn(CC(=O)N[C@@H](Cc2cc(F)cc(F)c2)c2ncccc2-c2ccc(F)c(C(N)=O)c2)nc1C(F)(F)F` [Example 314, (S)-5-(2-(2-(3,5-difluorophenyl)-1-(2-(4-((ethylamino)methyl)-3-(trifluoromethyl)-1H-pyrazol-1-yl)acetamido)ethyl)pyridin-3-yl)-2-fluorobenzamide] gave a CC50 at 5 days (in vitro) of 23600 nM and an inhibition at 2 µM (HIV-IIIb) of 3%.
With `NC(=O)c1cccc(-c2cccnc2[C@H](Cc2cc(F)cc(F)c2)NC(=O)Cn2c(C(F)(F)F)nc3ccc(OC(F)(F)F)cc32)c1` [Example 315, (S)-3-(2-(2-(3,5-difluorophenyl)-1-(2-(6-(trifluoromethoxy)-2-(trifluoromethyl)-1H-benzo[d]imidazol-1-yl)acetamido)ethyl)pyridin-3-yl)benzamide] the CC50 at 5 days (in vitro) was 47200 nM and the inhibition at 2 µM (HIV-IIIb) was 0%.
Compound `NC(=O)c1cc(-c2cccnc2[C@H](Cc2cc(F)cc(F)c2)NC(=O)Cn2nc(C(F)F)cc2C2CC2)ccc1F` [Example 317, (S)-5-(2-(1-(2-(5-cyclopropyl-3-(difluoromethyl)-1H-pyrazol-1-yl)acetamido)-2-(3,5-difluorophenyl)ethyl)pyridin-3-yl)-2-fluorobenzamide] has a CC50 at 5 days (in vitro) of over 47600 nM and an inhibition at 2 µM (HIV-IIIb) of 41%.
With `NC(=O)c1cc(-c2cccnc2[C@H](Cc2cc(F)cc(F)c2)NC(=O)Cn2c(=O)[nH]c3ccccc32)ccc1F` [Example 318, (S)-5-(2-(2-(3,5-difluorophenyl)-1-(2-(2-oxo-2,3-dihydro-1H-benzo[d]imidazol-1-yl)acetamido)ethyl)pyridin-3-yl)-2-fluorobenzamide] the CC50 at 5 days (in vitro) was over 53200 nM and the inhibition at 2 µM (HIV-IIIb) was 27%.
For `Cc1cc2nc(C(F)(F)F)n(CC(=O)N[C@@H](Cc3cc(F)cc(F)c3)c3ncccc3-c3ccc(F)c(C(N)=O)c3)c2cc1C` [Example 319, (S)-5-(2-(2-(3,5-difluorophenyl)-1-(2-(5,6-dimethyl-2-(trifluoromethyl)-1H-benzo[d]imidazol-1-yl)acetamido)ethyl)pyridin-3-yl)-2-fluorobenzamide], the CC50 at 5 days (in vitro) was over 52500 nM and the inhibition at 2 µM (HIV-IIIb) was 70%.
Compound `Cc1cc2ncn(CC(=O)N[C@@H](Cc3cc(F)cc(F)c3)c3ncncc3-c3ccc(Cl)cc3)c2cc1C` [Example 320, (S)—N-(1-(5-(4-chlorophenyl)pyrimidin-4-yl)-2-(3,5-difluorophenyl)ethyl)-2-(5,6-dimethyl-1H-benzo[d]imidazol-1-yl)acetamide] has a CC50 at 5 days (in vitro) of 12500 nM and an inhibition at 2 µM (HIV-IIIb) of 110%.
Work on `Cc1cc(=O)n(CC(=O)N[C@@H](Cc2cc(F)cc(F)c2)c2ncccc2-c2cccc(C(N)=O)c2)c2ccccc12` [Example 321, (S)-3-(2-(2-(3,5-difluorophenyl)-1-(2-(4-methyl-2-oxoquinolin-1(2H)-yl)acetamido)ethyl)pyridin-3-yl)benzamide] yielded a CC50 at 5 days (in vitro) of 29700 nM and an inhibition at 2 µM (HIV-IIIb) of 30%.
`NC(=O)c1cc(-c2cccnc2[C@H](Cc2cc(F)cc(F)c2)NC(=O)Cn2nc(C(F)(F)F)c3c2CC(=O)CC3)ccc1F` [Example 322, (S)-5-(2-(2-(3,5-difluorophenyl)-1-(2-(6-oxo-3-(trifluoromethyl)-4,5,6,7-tetrahydro-1H-indazol-1-yl)acetamido)ethyl)pyridin-3-yl)-2-fluorobenzamide] showed a CC50 at 5 days (in vitro) of 37100 nM and an inhibition at 2 µM (HIV-IIIb) of 10%.
`NC(=O)c1cc(-c2cccnc2[C@H](Cc2cc(F)cc(F)c2)NC(=O)Cn2cc(C(=O)O)c(C(F)(F)F)n2)ccc1F` [Example 323, (S)-1-(2-(1-(3-(3-carbamoyl-4-fluorophenyl)pyridin-2-yl)-2-(3,5-difluorophenyl)ethylamino)-2-oxoethyl)-3-(trifluoromethyl)-1H-pyrazole-4-carboxylic acid] gave a CC50 at 5 days (in vitro) of over 53200 nM and an inhibition at 2 µM (HIV-IIIb) of 0%.
For `CN1CCc2c(c(C(F)(F)F)nn2CC(=O)N[C@@H](Cc2cc(F)cc(F)c2)c2ncccc2-c2ccc(F)c(C(N)=O)c2)C1` [Example 324, (S)-5-(2-(2-(3,5-difluorophenyl)-1-(2-(5-methyl-3-(trifluoromethyl)-4,5,6,7-tetrahydro-1H-pyrazolo[4,3-c]pyridin-1-yl)acetamido)ethyl)pyridin-3-yl)-2-fluorobenzamide], the CC50 at 5 days (in vitro) was over 53200 nM and the inhibition at 2 µM (HIV-IIIb) was 31%.
`NC(=O)c1cc(-c2cccnc2[C@H](Cc2cc(F)cc(F)c2)NC(=O)Cn2nc(C(F)(F)F)c3c2CC(O)CC3)ccc1F` (stereo partly drawn) [Example 325, 5-(2-((1S)-2-(3,5-difluorophenyl)-1-(2-(6-hydroxy-3-(trifluoromethyl)-4,5,6,7-tetrahydro-1H-indazol-1-yl)acetamido)ethyl)pyridin-3-yl)-2-fluorobenzamide] gave a CC50 at 5 days (in vitro) of 46100 nM and an inhibition at 2 µM (HIV-IIIb) of 86%.
Work on `NC(=O)c1cc(-c2cccnc2[C@H](Cc2cccc(F)c2)NC(=O)Cn2c(=O)[nH]c3ccccc32)ccc1F` [Example 326, (S)-2-fluoro-5-(2-(2-(3-fluorophenyl)-1-(2-(2-oxo-2,3-dihydro-1H-benzo[d]imidazol-1-yl)acetamido)ethyl)pyridin-3-yl)benzamide] yielded a CC50 at 5 days (in vitro) of over 53200 nM and an inhibition at 2 µM (HIV-IIIb) of 27%.
